Results published in US10760110B2, “Antibiotic testing and screening system” (priority 2017, dated 2020).
Where two headings read alike, the source gives them in different places.

Key:
Assay type in all cases: cell-based
[1] = tested on: A. baumannii KW1 and its GyrA/ParC mutants; assay: Etest MIC of quinolones, GyrA and/or ParC mutations (Table 17); conditions: Acinetobacter baumannii
Text: DNA fragments of the entire adeR, adeS, gyrA and parC along with their flanking regions were amplified from A. baumannii KW1 using PCR with specific primer pairs and then cloned into plasmid pUT-KB. The QuikChange site-directed mutagenesis kit (Stratagene) was used to generate mutations in the adeR, adeS, gyrA and parC genes in the plasmids using the methods described by the manufacturer. For homologous recombination, plasmids containing mutations in the adeR, adeS, gyrA or parC gene were transformed into E. coli S17-1 λpir^23 via electroporation and mobilized into A. baumannii KW1 via conjugation. Single-crossover strains were selected from Luria-Bertani (LB) plates supplemented with cefotaxime (1 μg/ml) and kanamycin ([…]), as the growth of non-A. baumannii contaminants is suppressed by cefotaxime (1 μg/ml). The kanamycin-resistant transconjugants were selected and the insertion of plasmids was verified via PCR. After incubation in 20 ml brain heart infusion (BHI) broth for 6 hours in the absence of kanamycin at 37° C., the fully grown cultures were spread onto LB plates supplemented with 10% sucrose. After the double crossover occurred, the sucrose-resistant and kanamycin-susceptible colonies were selected, and the gene mutations were confirmed via PCR.
(§1) The MICs of antibiotics were determined using the Etest (Biodisk AB, Sweden) according to the manufacturer's instructions. The MICs from the Etest, which fall between standard two-fold dilutions, were rounded up to the next highest two-fold value. The MICs of ceftazidime and cefotaxime against K. pneumoniae NVT1001 harbouring the pACYC177 plasmid with blaOXA-48 were further determined using a broth microdilution test according to the recommendations of the CLSI,^25 and the results were interpreted according to the breakpoints established by the CLSI in 2017.^25 Meanwhile, due to the lack of CLSI breakpoints in 2016 and 2017, the results for cephalothin were interpreted according to the breakpoints established by the CLSI in 2015,^26 and the results for moxifloxacin were interpreted according to the breakpoints established by the EUCAST in 2017.^27

[2] = tested on: K. pneumoniae NVT1001 strains with QnrB, QnrS or AAC(6′)-Ib-cr plasmids; assay: Etest MIC of quinolones, GyrA/ParC mutations, ΔramR and/or QnrB, QnrS or AAC(6′)-Ib-cr (Table 12); conditions: Klebsiella pneumoniae
Protocol: DNA fragments of the resistance genes along with their flanking regions were amplified from clinical plasmids via PCR with specific primer pairs. The resulting PCR fragments were digested and then cloned into the plasmid pACYC177 or pACYC184. The resulting plasmids were then transformed into K. pneumoniae strain NVT1001 via electroporation. The recombinant bacteria were plated onto LB agar plates containing kanamycin (50 mg/L) or chloramphenicol (50 mg/L), and the presence of the cloned gene was confirmed via PCR and DNA sequencing.
as §1

[3] = tested on: K. pneumoniae NVT1001 gyrA/parC and gyrA/parC/ramR mutants and revertants; assay: Etest MIC of quinolones, gyrA/parC and gyrA/parC/ramR mutants and their revertants (Table 11); conditions: Klebsiella pneumoniae
Text: The allelic-exchange method was used to restore the wild-type gene in the K. pneumoniae NVT1001 mutants with constructed chromosome-mediated resistance mechanisms, as described by Tsai et al.^19 Briefly, a DNA fragment of the entire wild-type gene sequence along with flanking regions was amplified from K. pneumoniae NVT1001 using PCR with specific primers. The resulting PCR fragment was digested and then cloned into pUT-KB. For homologous recombination, this plasmid was transformed into E. coli S17-1 λpir^23 via electroporation and mobilized into the K. pneumoniae NVT1001 mutant via conjugation. […] After incubation in 20 mL BHI broth for 6 hours at 37° C. in the absence of kanamycin, the fully grown cultures were spread onto LB agar plates supplemented with 10% sucrose. After the double crossover occurred, the sucrose-resistant and kanamycin-susceptible colonies were selected, and the restoration of the wild-type gene was confirmed via DNA sequencing.
as §1

[4] = AAC(6′)-Ib-cr on pACYC177, S83I mutant
[5] = AAC(6′)-Ib-cr on pACYC177, S83I/D87N/S80I mutant
[6] = AAC(6′)-Ib-cr on pACYC177, S83I/S80I mutant
[7] = AAC(6′)-Ib-cr on pACYC177, WT (NVT1001), read-out: MIC
[8] = AAC(6′)-Ib-cr on pACYC177, ΔramR mutant
[9] = AAC(6′)-Ib-cr on pACYC177, ΔramR/S83I mutant
[10] = AAC(6′)-Ib-cr on pACYC177, ΔramR/S83I/D87N/S80I mutant
[11] = AAC(6′)-Ib-cr on pACYC177, ΔramR/S83I/S80I mutant
[12] = QnrB on pACYC177, S83I/D87N/S80I mutant
[13] = QnrB on pACYC177, S83I/S80I mutant
[14] = QnrB on pACYC177, WT (NVT1001), read-out: MIC
[15] = QnrB on pACYC177, ΔramR/S83I mutant
[16] = QnrB on pACYC177, ΔramR/S83I/D87N/S80I mutant
[17] = QnrB on pACYC177, ΔramR/S83I/S80I mutant
[18] = QnrS on pACYC177, S83I/D87N/S80I mutant
[19] = QnrS on pACYC177, S83I/S80I mutant
[20] = QnrS on pACYC177, WT (NVT1001), read-out: MIC
[21] = QnrS on pACYC177, ΔramR/S83I mutant
[22] = QnrS on pACYC177, ΔramR/S83I/D87N/S80I mutant
[23] = QnrS on pACYC177, ΔramR/S83I/S80I mutant
[24] = no supplemental plasmid, S83I mutant
[25] = no supplemental plasmid, S83I/D87N/S80I mutant
[26] = no supplemental plasmid, S83I/S80I mutant
[27] = no supplemental plasmid, WT (NVT1001), read-out: MIC
[28] = no supplemental plasmid, ΔramR mutant
[29] = no supplemental plasmid, ΔramR/S83I mutant
[30] = no supplemental plasmid, ΔramR/S83I/D87N/S80I mutant
[31] = no supplemental plasmid, ΔramR/S83I/S80I mutant
[32] = S83F/D87N/S80I::F83S/N87D/I80S revertant, read-out: MIC
[33] = S83F/D87N/S80I::I80S revertant, read-out: MIC
[34] = S83F/D87N/S80I::N87D revertant, read-out: MIC
[35] = S83F/D87N/S80I::N87D/I80S revertant, read-out: MIC
[36] = S83I/D87N/S80I::I80S revertant, read-out: MIC
[37] = S83I/D87N/S80I::I83S/N87D/I80S revertant, read-out: MIC
[38] = S83I/D87N/S80I::N87D revertant, read-out: MIC
[39] = S83I/D87N/S80I::N87D/I80S revertant, read-out: MIC
[40] = S83L/D87N/S80I::I80S revertant, read-out: MIC
[41] = S83L/D87N/S80I::L83S/N87D/I80S revertant, read-out: MIC
[42] = S83L/D87N/S80I::N87D revertant, read-out: MIC
[43] = S83L/D87N/S80I::N87D/I80S revertant, read-out: MIC
[44] = S83Y/D87N/S80I::I80S revertant, read-out: MIC
[45] = S83Y/D87N/S80I::N87D revertant, read-out: MIC
[46] = S83Y/D87N/S80I::N87D/I80S revertant, read-out: MIC
[47] = S83Y/D87N/S80I::Y83S/N87D/I80S revertant, read-out: MIC
[48] = ΔramR/S83I/D87N/S80I:: ramR/I83S revertant
[49] = ΔramR/S83I/D87N/S80I:: ramR/I83S/I80S revertant
[50] = ΔramR/S83I/D87N/S80I:: ramR/I83S/N87D revertant
[51] = ΔramR/S83I/D87N/S80I::I83S/N87D/I80S revertant
[52] = ΔramR/S83I/D87N/S80I::N87D revertant
[53] = ΔramR/S83I/D87N/S80I::N87D/I80S revertant
[54] = ΔramR/S83I/D87N/S80I::ramR/I83S/N87D/I80S

Measured: MIC

CC1COc2c(N3CCN(C)CC3)c(F)cc3c(=O)c(C(=O)O)cn1c23 (stereo not drawn) [Ofloxacin, ofloxacin]
1 µg/mL: [3]; [48] | [3]; [49]
32 µg/mL: [1]; S83L/G78C mutant | [2]; [5] | [2]; QnrB on pACYC177, ΔramR mutant | [2]; [25] | [3]; S83I/D87N/S80I mutant | [3]; S83L/D87N/S80I mutant
16 µg/mL: [2]; QnrS on pACYC177, ΔramR mutant | [3]; S83F/D87N/S80I mutant | [3]; S83Y/D87N/S80I mutant
2 µg/mL: [2]; [8] | [2]; [24] | [2]; [28] | [3]; [33] | [3]; [35] | [3]; [36] | [3]; [39] | [3]; [40] | [3]; [43] | [3]; [44] | [3]; [46] | [3]; [51]
6 µg/mL: [1]; S83L mutant
0.38 µg/mL: [1]; E84K mutant | [1]; G78C mutant | [1]; KW1, read-out: MIC | [1]; S80Y mutant
0.25 µg/mL: [2]; [7] | [2]; [27] | [3]; [32] | [3]; [37] | [3]; [41] | [3]; [47] | [3]; [50] | [3]; [54]
0.5 µg/mL: [1]; S80L mutant | [1]; S80W mutant
> 32 µg/mL: [1]; S83L/E84K mutant | [1]; S83L/S80L mutant | [1]; S83L/S80W mutant | [1]; S83L/S80Y mutant | [2]; [9] | [2]; [10] | [2]; [11] | [2]; [12] | [2]; [13] | [2]; [15] | [2]; [16] | [2]; [17] | [2]; [18] | [2]; [19] | [2]; [21] | [2]; [22] | [2]; [23] | [2]; [29] | [2]; [30] | [2]; [31] | [3]; ΔramR/S83I/D87N/S80I mutant | [3]; [52] | [3]; [53]
4 µg/mL: [2]; [4] | [2]; [14] | [2]; [20] | [2]; [26] | [3]; [34] | [3]; [42] | [3]; [45]
8 µg/mL: [2]; [6] | [2]; QnrB on pACYC177, S83I mutant | [2]; QnrS on pACYC177, S83I mutant | [3]; [38]

C[C@H]1COc2c(N3CCN(C)CC3)c(F)cc3c(=O)c(C(=O)O)cn1c23 [Levofloxacin, levofloxacin]
0.06 µg/mL: [2]; [7] | [2]; [27] | [3]; [32] | [3]; [37] | [3]; [41] | [3]; [47] | [3]; [50] | [3]; [54]
32 µg/mL: [1]; S83L/G78C mutant | [2]; [19]
16 µg/mL: [2]; [13] | [2]; [29]
2 µg/mL: [2]; [6] | [2]; QnrB on pACYC177, S83I mutant | [2]; [26] | [3]; [42]
0.19 µg/mL: [1]; E84K mutant | [1]; G78C mutant | [1]; KW1, read-out: MIC | [1]; S80L mutant | [1]; S80W mutant | [1]; S80Y mutant
0.5 µg/mL: [2]; [4] | [2]; [24] | [3]; [33] | [3]; [35] | [3]; [44] | [3]; [46] | [3]; [48] | [3]; [49]
1 µg/mL: [1]; S83L mutant | [2]; [8] | [2]; [14] | [2]; [20] | [2]; [28] | [3]; [34] | [3]; [36] | [3]; [39] | [3]; [40] | [3]; [43] | [3]; [45] | [3]; [51]
> 32 µg/mL: [1]; S83L/E84K mutant | [1]; S83L/S80L mutant | [1]; S83L/S80W mutant | [1]; S83L/S80Y mutant | [2]; [10] | [2]; [11] | [2]; [12] | [2]; [15] | [2]; [16] | [2]; [17] | [2]; [18] | [2]; [21] | [2]; [22] | [2]; [23] | [2]; [30] | [2]; [31] | [3]; ΔramR/S83I/D87N/S80I mutant | [3]; [52]
8 µg/mL: [2]; [5] | [2]; [9] | [2]; QnrB on pACYC177, ΔramR mutant | [2]; QnrS on pACYC177, ΔramR mutant | [2]; [25] | [3]; S83F/D87N/S80I mutant | [3]; S83I/D87N/S80I mutant | [3]; S83L/D87N/S80I mutant | [3]; [53]
4 µg/mL: [2]; QnrS on pACYC177, S83I mutant | [3]; [38] | [3]; S83Y/D87N/S80I mutant
